“Also recorded” adds a separate entry of the source. Where two headings read alike, the source gives them in different places.

The values that follow come from US8188143B2, “Pharmaceutical composition useful as acetylcholinesterase inhibitors” (Council of Scientific and Industrial Research, priority 2006, dated 2012).

The test system of test [1] is Scopolamine induced deficit in passive avoidance test in mice. Kind of test: Single trial passive avoidance test, scopolamine induced deficit (in vivo). The settings on record: for In Vivo (passive avoidance test, significance of TLT increase): scopolamine induced deficit, oral for 3 days; for In Vivo (passive avoidance test, significance of TLT increase) / effectiveness in passive avoidance test (in vivo), in words: mice; for TLT on 2nd trial as compared to 1st trial after scopolamine: mice pretreated po x 3 days (100 mg/kg FIG. 1a; 50 mg/kg FIG. 1b), scopolamine 5 min prior to 1st trial; for effectiveness in passive avoidance test (in vivo), in words: scopolamine induced memory deficit. As to the method: Single trial passive avoidance is widely used as experimental test to assess learning memory functions in rodents. Scopolamine induced impairment in passive avoidance (in vivo) and inhibition of acetylcholinesterase (in vitro) in rodents are commonly employed and screening test to predict potential of an acetylcholinesterase inhibitor as cognitive enhancer (anti-dementic) drug.
Passive Avoidance Test (In Vivo):
The study was conducted in adult Swiss male mice of 3-4 months (wt. 20-25 g) were kept in standard housing condition with 12 h light and dark cycle. The food and water were available ad libitum.
The mice were subjected to single trial passive avoidance test as described by Brioni.
The passive avoidance test was studied by a computerized shuttle box (Columbus Instruments, Ohio, USA) provided with a software program PACS 30. The shuttle box is comprised of two compartments. An automated door was used to isolate the compartments. After an exploration period of 30 s for acclimatization the animal was subjected to a trial of 270 seconds. Each mouse was placed in the bright compartment and on transfer into the dark compartment it was given an electric shock (0.5 mA for 5 s) through floor grid. The transfer of mice from the bright to dark compartment was recorded as transfer latency time (TLT) in seconds. TLT was recorded in control and treated groups (1st Trial, acquisition) and then after 24 h (2nd Trial, retention). An increase in the TLT on 2nd Trial (retention) as compared to 1st Trial (acquisition) was taken as the criterion for successful learning and memory (cognitive activity).
Scopolamine Induced Deficit (Dementia)
Scopolamine, a muscarinic antagonist known to produce impairment in cognitive functions (dementia) in human as well as in experimental animals, was used to produce deficit (no significant increase on 2nd trial) in passive avoidance learning. Scopolamine was administered 5 min prior to 1st trial. Reversal of scopolamine induced deficit i.e. significant increase in 2nd trial by test substance indicates potential anti-dementia activity. […].
The test substance Columbianetin was administered orally in dose of 100 m/kg (1% aqueous suspension in gum acacia) for 3 days. The treated animals were subjected to 1st trial after 60 min of 3rd dose of test substance. Scopolamine was administered 5 min prior to 1st trial in test group.
The control group received 1 ml/kg of vehicle (1% aqueous suspension in gum acacia) orally for 3 days. Among the control mice half (n=5) received scopolamine 5 min prior to 1st trial (Control—dementia) and the remaining half were subjected to passive avoidance test (Control—trained).
Level of p value<0.05 indicates statistically significant difference.
Mean values and standard error (S.E.) of mean were calculated for TLT and specific activity of AChE in the different regions of brain samples of each group. The significance of difference between the values of AChE activity and TLT of two groups was determined by one-way ANOVA test that followed by Dunnett's test.

The test system is the same in test [2]. Described as above. The settings on record: po + scopolamine, % increase in TLT of 2nd trial from TLT of 1st trial.
Test [3] has as its target T1, Acetylcholinesterase (AChE) (Rattus norvegicus, UniProt P37136).
T1 construct: Aliquots of this supernatant was diluted in the ratio of 1:10 and used as a source of enzyme for the assay; from tissue; host or cells: whole brain of adult male SD rats; 100,000 x g supernatant of a 10% homogenate with Triton X-100
Nature of the test: Acetylcholinesterase (AChE) assay in brain (in vitro), Ellman method. The test is classed as biochemical. As to the method: Acetylcholinesterase (AChE) Assay in Brain (In Vitro)
The study was conducted in adult SD male rats (200-250 g). The rats were perfused under mild ether anesthesia through heart with ice cooled normal saline (0.9% NaCl) to reduce blood-borne cholinesterase from the brain. After perfusion the whole brain was taken out. A 10% (w/v) homogenate of brain was prepared first by homogenizing in an Ultra-Turrax T25 homogenizer at a speed of 9500 rpm thrice giving intervals for few seconds in between the runs, with sodium phosphate buffer (30 mmol/lit, pH 7.0). Sodium phosphate buffer was taken in a volume half to the final volume required for 10% homogenate.
1% Triton X-100 (1% w/v in 30 mmol/lit. sodium phosphate buffer, pH 7.0) is then added in a volume to make the final volume for 10% homogenate, slowly while stirring the homogenate on ice. The homogenate was centrifuged at 100,000×g at 4° C. in a Beckman Ultracentrifuge (LE 80) using a fixed angle rotor (80 Ti) for 60 min. Supernatant was collected and stored at 4° C. Aliquots of this supernatant was diluted in the ratio of 1:10 and used as a source of enzyme for the assay.
The assay of AChE was performed according to method described by Ellman et al. A kinetic profile of the enzyme activity was studied spectrophotometrically at 412 nm at an interval of 15 s. The assay for each sample was run in duplicate and each experiment was performed thrice. The specific activity of AChE is expressed in μmoles/min/mg of protein. The test substance (dissolved in DMSO) was incubated with enzyme source in concentration of 100 μg/1 ml of reaction mixture for 30 min at 37° C. prior to obtain kinetic profile of AChE activity. The AChE inhibitory activity was calculated on the basis of % decrease change from control values.
Protein was estimated in the brain samples by modified Lowry's method. Bovine serum albumin (BSA) was used as standard in the concentration of 1 mg/ml. was estimated in the range of 0.01-0.1 mg/ml. […]

[4] abbreviates: 0.5 h; 100 μg/1 ml of reaction mixture, incubated 30 min at 37° C., rat brain enzyme source; read-out: In Vitro %) (AChE inhibitory activity, % decrease change from control).

T1 sequence (P37136 32-614): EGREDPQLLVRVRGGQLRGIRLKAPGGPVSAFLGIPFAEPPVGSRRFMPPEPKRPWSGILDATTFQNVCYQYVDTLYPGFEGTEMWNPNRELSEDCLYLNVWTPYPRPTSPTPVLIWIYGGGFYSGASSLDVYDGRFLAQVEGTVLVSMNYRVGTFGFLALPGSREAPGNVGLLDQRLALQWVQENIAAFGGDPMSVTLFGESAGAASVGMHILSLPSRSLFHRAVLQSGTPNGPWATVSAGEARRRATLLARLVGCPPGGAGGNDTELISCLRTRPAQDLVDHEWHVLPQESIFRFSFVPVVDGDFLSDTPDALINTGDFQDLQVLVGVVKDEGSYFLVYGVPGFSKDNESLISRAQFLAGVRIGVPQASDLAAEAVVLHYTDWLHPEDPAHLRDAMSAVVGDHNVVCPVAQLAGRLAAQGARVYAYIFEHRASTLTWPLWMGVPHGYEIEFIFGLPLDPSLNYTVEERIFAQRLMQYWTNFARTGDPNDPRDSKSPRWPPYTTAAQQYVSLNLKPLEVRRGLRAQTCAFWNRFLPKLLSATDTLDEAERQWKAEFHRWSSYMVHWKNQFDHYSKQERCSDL

On to `O=c1ccc2ccc(O)cc2o1` [7-Hydroxycoumarin], for which the “In Vivo (passive avoidance test, significance of TLT increase)” value in test [1] is “No significant activity”.
Same read-out and setting: for `CC(C)=CCc1c(O)ccc2ccc(=O)oc12` [7-Hydroxy-8-prenylcoumarin] the value was “No significant activity”.
Consider `CC(=O)Oc1ccc2ccc(=O)oc2c1` [7-Acetyloxycoumarin], for which the “% Memory retention” value in test [2] (AP20am samples 50 mg/kg) is reported as 321%. Besides, in test [1], the “TLT on 2nd trial as compared to 1st trial after scopolamine” value is “significant increase in TLT on 2nd trial”; the “In Vivo (passive avoidance test, significance of TLT increase)” value is “High significant activity”; the “effectiveness in passive avoidance test (in vivo), in words” value (from here on “effectiveness in passive avoidance test”) is given as “most effective; also recorded: effective”. Besides, the inhibition at 100 µg/mL in test [3] (setting [4]) came to 39.1%.
As for `Cc1cc(=O)oc2cc(O)ccc12` [4-Methyl-7-hydroxycoumarin], in test [2] (AP20am samples 50 mg/kg), the “% Memory retention” value came to 376%. In test [1], the “TLT on 2nd trial as compared to 1st trial after scopolamine” value is listed as “significant increase in TLT on 2nd trial”; the “In Vivo (passive avoidance test, significance of TLT increase)” value is listed as “High significant activity”; the “effectiveness in passive avoidance test” value is on record as “most effective”. Moreover, in test [3] (setting [4]), the inhibition at 100 µg/mL came out at 17.4%.
As to `CC1(C)CCc2cc3ccc(=O)oc3cc2O1` [Dihydroxanthyletin], the “In Vivo (passive avoidance test, significance of TLT increase)” value in test [1] is “No significant activity”. In addition, in test [3] (setting [4]), the inhibition at 100 µg/mL is 37.8%.
On the same counts, the results for `CC(=O)Oc1ccc2c(C)cc(=O)oc2c1OC(C)=O` [4-Methyl-7,8-diacetyloxycoumarin] are “No significant activity” and 24%.
Turning to `COc1cc2c(cc1OC)C(=O)C(CC1CCN(Cc3ccccc3)CC1)C2` (centres unmarked) [Donepezil, reference compound], the “% Memory retention” value in test [2] (Standard drug Donepezil 10 mg/kg) worked out at 288%.
Consider `Cc1cc(=O)oc2c(OCc3ccccc3)c(OCc3ccccc3)ccc12` [4-Methyl-7,8-dibenzyloxycoumarin], for which the “In Vivo (passive avoidance test, significance of TLT increase)” value in test [1] is “No significant activity”. For the same compound, in test [3] (setting [4]), the inhibition at 100 µg/mL amounted to 24.1%.
Consider `C=CCOc1ccc2ccc(=O)oc2c1` [7-Allyloxycoumarin], for which, in test [1], the “TLT on 2nd trial as compared to 1st trial after scopolamine” value was “significant increase in TLT on 2nd trial” and the “In Vivo (passive avoidance test, significance of TLT increase)” value is “Significant activity (P < 0.05)”.
As to `Cc1cc(=O)oc2c(O)c(O)ccc12` [4-Methyl-7,8-dihydroxycoumarin], the “In Vivo (passive avoidance test, significance of TLT increase)” value in test [1] is reported as “No significant activity”. For the same compound, the inhibition at 100 µg/mL in test [3] (setting [4]) was 14.1%.
Consider `COc1ccc2ccc(=O)oc2c1` [7-Methoxycoumarin], for which, in test [2] (AP20am samples 50 mg/kg), the “% Memory retention” value is reported as 295%. In test [1], the “TLT on 2nd trial as compared to 1st trial after scopolamine” value is “significant increase in TLT on 2nd trial”; the “In Vivo (passive avoidance test, significance of TLT increase)” value is listed as “High significant activity”; the “effectiveness in passive avoidance test” value is “most effective”. In addition, the inhibition at 100 µg/mL in test [3] (setting [4]) came to 25.2%.
In the case of `O=c1ccc2ccc(OCc3ccccc3)cc2o1` [7-Benzyloxycoumarin], in test [1], the “TLT on 2nd trial as compared to 1st trial after scopolamine” value is “significant increase in TLT on 2nd trial” and the “In Vivo (passive avoidance test, significance of TLT increase)” value is given as “Significant activity”.
For the compound `CC(C)=CCOc1ccc2ccc(=O)oc2c1` [7-Prenyloxycoumarin], the “In Vivo (passive avoidance test, significance of TLT increase)” value in test [1] is listed as “No significant activity”.
With `CC(C)(O)[C@@H]1Cc2c(ccc3ccc(=O)oc23)O1` [Columbianetin], the “In Vivo (passive avoidance test, significance of TLT increase)” value in test [1] is listed as “No significant activity”. The inhibition at 100 µg/mL in test [3] (setting [4]) is 13.9%.
For the compound `CC(C)(O)[C@@H]1Cc2cc3ccc(=O)oc3cc2O1` (racemic) [(±) Marmesin], in test [1], the “In Vivo (passive avoidance test, significance of TLT increase)” value is “Significant activity (P < 0.01)”. Also, in test [3] (100 μg/1 ml of reaction mixture, incubated 30 min at 37° C., rat brain enzyme source), the “In Vitro %) (AChE inhibitory activity, % decrease change from control)” value came out at 23.91%.
Regarding `CC1(C)C=Cc2c(ccc3ccc(=O)oc23)O1` [Seselin], the “In Vivo (passive avoidance test, significance of TLT increase)” value in test [1] is “No significant activity”.
With `COc1ccc2c(C)cc(=O)oc2c1OC` [4-Methyl-7,8-dimethoxycoumarin], the “In Vivo (passive avoidance test, significance of TLT increase)” value in test [1] is on record as “No significant activity”. The inhibition at 100 µg/mL in test [3] (setting [4]) amounted to 14.2%.
With `C#CC(C)(C)c1ccc2ccc(=O)oc2c1` [7-Dimethylpropargylcoumarin], the “In Vivo (passive avoidance test, significance of TLT increase)” value in test [1] is “No significant activity”.
In the case of `COc1ccc2c(C)cc(=O)oc2c1` [4-Methyl-7-methoxycoumarin], in test [1], the “In Vivo (passive avoidance test, significance of TLT increase)” value is on record as “No significant activity” and the “effectiveness in passive avoidance test” value is “effective”. Further, the inhibition at 100 µg/mL in test [3] (setting [4]) came to 48.9%.
For `CC(=O)Oc1ccc2c(C)cc(=O)oc2c1` [4-Methyl-7-acetyloxycoumarin], in test [1], the “TLT on 2nd trial as compared to 1st trial after scopolamine” value is given as “significant increase in TLT on 2nd trial” and the “In Vivo (passive avoidance test, significance of TLT increase)” value is listed as “Significant activity (P < 0.01)”. In addition, the inhibition at 100 µg/mL in test [3] (setting [4]) stood at 23.9%.
As to `CC(C)=CCc1cc2ccc(=O)oc2cc1O` [7-Hydroxy-6-prenylcoumarin], the “In Vivo (passive avoidance test, significance of TLT increase)” value in test [1] was “No significant activity”. Also, the inhibition at 100 µg/mL in test [3] (0.5 h, read-out: In Vitro %) (AChE inhibitory activity, % decrease change from control)) came to 42.2%.
